pEC50: −log10 of the molar value.

The pEC50 is the negative decadic logarithm of the EC50, by convention in mol/L.

In one assay the target is T1, human GPR120 (Homo sapiens, UniProt Q5NUL3).
T1 construct: host or cells: HEK293 cells co-expressing Gqi5
T1 sequence (Q5NUL3 1-361): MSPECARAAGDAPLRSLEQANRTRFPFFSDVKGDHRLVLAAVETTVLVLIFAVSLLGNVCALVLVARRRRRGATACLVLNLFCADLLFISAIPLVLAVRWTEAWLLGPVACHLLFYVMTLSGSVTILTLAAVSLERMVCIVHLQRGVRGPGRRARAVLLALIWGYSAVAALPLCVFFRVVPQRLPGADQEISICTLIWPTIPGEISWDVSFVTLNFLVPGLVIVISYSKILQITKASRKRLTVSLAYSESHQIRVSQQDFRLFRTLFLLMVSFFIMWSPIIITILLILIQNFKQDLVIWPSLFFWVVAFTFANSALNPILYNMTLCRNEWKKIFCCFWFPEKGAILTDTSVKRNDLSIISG
Put plainly: Intracellular Ca2+ assay in human GPR120 stable cell line (FLIPR Calcium 4 dye, Flexstation). The assay is classed as cell-based. As to conditions: % activity at 2.5 µM compared to the maximal activity of the compound of Example 25 at 2.5 µM (=100%); HEK293 cells co-expressing Gqi5. As for the experimental part: Human GPR120 stable cell line was purchased from Multispan Inc (26219 Eden Landing Road, Hayward, CA94545). This GPR120 cell line was generated in HEK293 cells co-expressing Gqi5. In this cell line, the Flag epitope tag (DYKDDDDK) was fused to the amino terminus of human GPR120 protein.
The concentration of intracellular Ca^2+ was measured as described below. Human GPR120 cells were plated in 96 well plates (Poly-D-Lysine coated black/clear Plate, Greiner Bio-One) at 70,000 cells per well and cultured overnight in conditions of 37°C and 5% CO2. A Ca^2+ assay dye stock solution was prepared by adding 10 mL of assay buffer (HBSS/20mM HEPES, pH 7.4) to FLIPR Calcium 4 Assay Bulk Kit (Molecular Devices). The 10 mL of Ca^2+ assay dye solution was prepared by further diluting 0.5 mL of Ca^2+ assay dye stock solution with 10 mL of assay buffer. The medium of the cells was removed and immediately 100 µL of the Ca^2+ assay dye solution was dispensed into each well followed by incubation at 37°C and 5% CO2 for 50 minutes to incorporate the Ca^2+ dye into the cells. The cell plate was then placed in the Flexstation (Molecular Devices) for 20 minutes at 37°C. Compounds were dissolved in 100% DMSO and diluted to desired concentrations with assay buffer and placed in the Flexstation simultaneously with the cell plate for 20 minute incubation at 37°C prior to reading. Fluorescence intensity was measured immediately following compound addition (25 µL/well) on the Flexstation at an excitation wavelength of 485 nm and an emission wavelength of 525 with 515 nm auto cutoff. The resulting increase in fluorescence intensities corresponds to increases in intracellular Ca^2+ levels.
Compounds were dissolved in 100% DMSO to a concentration of 20 mM to provide stock solutions. To determine activity against human GPR120, compounds were added with human GPR120 stably expressing cells (described above), at eight desired concentrations ranging from 0.00001 to 20 µM, in 96 well plates and fluorescence intensities were measured for 90 seconds with 2-second intervals. An EC50 value (concentration of the GPR120 agonist where 50% of the agonist's maximal activity is observed) was calculated using the changes (Max-Min) of fluorescence intensity.
To determine percent activity for a tested compound, the fluorescence intensity value obtained at a particular concentration were compared to the maximal fluorescence intensity value obtained for reference compound GW9508 (4-[[(3-phenoxyphenyl)methyl]amino]benzene propanoic acid; British Journal of Pharmacology 2006 148, 619-628) or the compound of Example 25. When GW9508 was used as the reference compound, the maximal activity of GW9508 at 6.7µM was designated as 100% activity. When the compound of Example 25 was used as the reference compound, the maximal activity of the compound of Example 25 at 2.5 µM was designated as 100% activity. Typically, the GW9508 activity reached a maximum at a concentration of approximately 6.7 µM and typically the compound of Example 25 reached a maximum activity at approximately 2.5µM. […]
Turning to `CC1(C)Cc2cc(F)cc(COc3ccc(C4CC4C(=O)O)cc3)c2O1` (stereo not drawn) [Example 131B, 2-(4-((5-fluoro-2,2-dimethyl-2,3-dihydrobenzofuran-7-yl)methoxy)phenyl) cyclopropanecarboxylic acid], the “% Activity (Ex. 25 Reference Compound)” value turned out to be 105.8%.

Still in this assay, the particulars now being: HEK293, % activity at 2.5 µM compared to the maximal activity of the compound of Example 25 at 2.5 µM (=100%); HEK293 cells co-expressing Gqi5; read-out: % Activity (Ex. 25 Reference Compound).
For the molecule `COc1cc(CCC(=O)O)c(Br)cc1OCc1cc(F)cc2c1OC(C)(C)C2` [Example 56, 3-(2-bromo-4-((5-fluoro-2,2-dimethyl-2,3-dihydrobenzofuran-7-yl)methoxy)-5-methoxyphenyl)propanoic acid], the activity at 2.5 µM amounted to 109%.
Still for that read-out and setting: in the case of `CC(Cc1cc(F)c(OCc2cccc3cn[nH]c23)c(F)c1)C(=O)O` (stereo not drawn) [Example 260, 3-(4-((1H-indazol-7-yl)methoxy)-3,5-difluorophenyl)-2-methylpropanoic acid] it was 16.7%; in that of `CC1(C)Cc2cc(Cl)cc(COc3ccccc3CCC(=O)O)c2O1` [Example 250, 3-(2-((5-chloro-2,2-dimethyl-2,3-dihydrobenzofuran-7-yl)methoxy)phenyl)propanoic acid], 10.2%.
Same read-out and setting: in the case of `CC(Cc1ccc(OCc2cc(Cl)cc3c2OC(C)(C)C3)c(CN(C)C)c1)C(=O)O` (stereo not drawn) [Example 88, 3-(4-((5-chloro-2,2-dimethyl-2,3-dihydrobenzofuran-7-yl)methoxy)-3-((dimethylamino)methyl)phenyl)-2-methylpropanoic acid] it was 119%; in that of `CC(CC(=O)O)Cc1ccc(OCc2cc(F)cc3c2OC(C)(C)C3)cc1` (stereo not drawn) [Example 182, 4-(4-((5-fluoro-2,2-dimethyl-2,3-dihydrobenzofuran-7-yl)methoxy)phenyl)-3-methylbutanoic acid], 98.4%; in that of `CC(C)C(CC(=O)O)c1ccc(OCc2cc(Cl)cc3c2OC(C)(C)C3)cc1` (stereo not drawn) [Example 266, 3-(4-((5-chloro-2,2-dimethyl-2,3-dihydrobenzofuran-7-yl)methoxy)phenyl)-4-methylpentanoic acid], 42.7%.
Same read-out and setting: in the case of `CC(Cc1ccc(OCc2cc(F)cc3c2OCOC3)cc1)C(=O)O` (stereo not drawn) [Example 45, 3-(4-((6-fluoro-4H-benzo[d][1,3]dioxin-8-yl)methoxy)phenyl)-2-methylpropanoic acid] it was 79.6%; in that of `CC1(C)Cc2cc(Cl)cc(COc3c(F)cc(C4CC4CC(=O)O)cc3F)c2O1` (stereo not drawn) [Example 41, 2-(2-(4-((5-chloro-2,2-dimethyl-2,3-dihydrobenzofuran-7-yl)methoxy)-3,5-difluorophenyl)cyclopropyl)acetic acid], 116%; in that of `CC1(C)Cc2cc(Cl)cc(COc3ccc4c(c3)CC(C(=O)O)C4)c2O1` (stereo not drawn) [Example 112, 5-((5-chloro-2,2-dimethyl-2,3-dihydrobenzofuran-7-yl)methoxy)-2,3-dihydro-1H-indene-2-carboxylic acid], 115%.
`CC1(C)Cc2cc(F)cc(COc3ccc(C4CC4C(=O)O)cc3)c2O1` (stereo not drawn) [Example 131A, 2-(4-((5-fluoro-2,2-dimethyl-2,3-dihydrobenzofuran-7-yl)methoxy)phenyl) cyclopropanecarboxylic acid]: the activity at 2.5 µM was 104%.
For the molecule `CC1(C)Cc2cc(F)cc(COc3ccc(CCC(=O)O)c(Cl)c3)c2O1` [Example 47, 3-(2-chloro-4-((5-fluoro-2,2-dimethyl-2,3-dihydrobenzofuran-7-yl)methoxy)phenyl)propanoic acid], the activity at 2.5 µM amounted to 111%.
The same measure, in the same setting: the result for `Cc1nc2cccc(COc3c(F)cc(CC(C)C(=O)O)cc3F)c2o1` (stereo not drawn) [Example 261, 3-(3,5-difluoro-4-((2-methylbenzo[d]oxazol-7-yl)methoxy)phenyl)-2-methylpropanoic acid] reads 109%; that for `CC1(C)Cc2cc(F)cc(COc3ccc(CCC(=O)O)c4c3CCCC4)c2O1` [Example 218, 3-(4-((5-fluoro-2,2-dimethyl-2,3-dihydrobenzofuran-7-yl)methoxy)-5,6,7,8-tetrahydronaphthalen-1-yl)propanoic acid], 114%.
On to `CC(Cc1ccc(OCc2cc(Cl)cc3c2OC(C)(C)C3O)c(F)c1)C(=O)O` (stereo not drawn) [Example 80, 3-(4-((5-chloro-3-hydroxy-2,2-dimethyl-2,3-dihydrobenzofuran-7-yl)methoxy)-3-fluorophenyl)-2-methylpropanoic acid], for which the activity at 2.5 µM turned out to be 86.2%.
The same measure, in the same setting: the result for `[2H]C([2H])(Oc1ccc(CC(C)C(=O)O)cc1F)c1cc(F)cc2c1OC(C)(C)C2` (stereo not drawn) [Example 230, 3-(4-(dideuterio(5-fluoro-2,2-dimethyl-2,3-dihydrobenzofuran-7-yl)methoxy)-3-fluorophenyl)-2-methylpropanoic acid] reads 86.2%; that for `CC1(C)Cc2cc(F)cc(COc3ccc(CCCC(=O)O)cc3)c2O1` [Example 160, 4-(4-((5-fluoro-2,2-dimethyl-2,3-dihydrobenzofuran-7-yl)methoxy)phenyl)butanoic acid], 172%; that for `CC1(C)Cc2cc(F)cc(COc3ccc4c(CC(=O)O)cc(=O)oc4c3)c2O1` [Example 263, 2-(7-((5-fluoro-2,2-dimethyl-2,3-dihydrobenzofuran-7-yl)methoxy)-2-oxo-2H-chromen-4-yl)acetic acid], 5.98%.

The same assay, now with this note: HEK293, % activity at 5 µM compared to the maximal activity of GW9508 at 6.7 µM (=100%); HEK293 cells co-expressing Gqi5; read-out: %Activity (GW9508 Reference Compound).
Regarding `CC(Cc1ccc(OCc2cc(Cl)cc3c2OC(C)(C)C3)c(Cl)c1)C(=O)O` (stereo not drawn) [Example 12, 3-(3-chloro-4-((5-chloro-2,2-dimethyl-2,3-dihydrobenzofuran-7-yl)methoxy)phenyl)-2-methylpropanoic acid], the activity at 5 µM is 116%.
On the same count and under the same terms, the result for `CC(Cc1cc(F)c(OCc2cc(F)cc3c2OC(C)(C)C3)c(F)c1)C(=O)O` (stereo not drawn) [Example 18, 3-(3,5-difluoro-4-((5-fluoro-2,2-dimethyl-2,3-dihydrobenzofuran-7-yl)methoxy)phenyl)-2-methylpropanoic acid] reads 130%.
For `CC1(C)Cc2cc(F)cc(COc3c(F)cc(C4CC4C(=O)O)cc3F)c2O1` (stereo not drawn) [Example 19, 2-(3,5-difluoro-4-((5-fluoro-2,2-dimethyl-2,3-dihydrobenzofuran-7-yl)methoxy)phenyl)cyclopropanecarboxylic acid], the activity at 5 µM was determined as 126%.
On the same count and under the same terms, the result for `CC1(C)Cc2c(F)ccc(COc3c(F)cc(C4CC4C(=O)O)cc3F)c2O1` (stereo not drawn) [Example 27, 2-(3,5-difluoro-4-((4-fluoro-2,2-dimethyl-2,3-dihydrobenzofuran-7-yl)methoxy)phenyl)cyclopropanecarboxylic acid] reads 144%; that for `Cc1cc(COc2c(F)cc(CC(C)C(=O)O)cc2F)c2c(c1)CC(C)(C)O2` (stereo not drawn) [Example 5, 3-(3,5-difluoro-4-((2,2,5-trimethyl-2,3-dihydrobenzofuran-7-yl)methoxy)phenyl)-2-methylpropanoic acid], 149%.

The same assay, now with this note: eight concentrations from 0.00001 to 20 µM; changes (Max-Min) of fluorescence intensity.
For the molecule `CC1(C)Cc2cc(Cl)cc(COc3ccccc3CCC(=O)O)c2O1` [Example 250, 3-(2-((5-chloro-2,2-dimethyl-2,3-dihydrobenzofuran-7-yl)methoxy)phenyl)propanoic acid], the pEC50 was less than 5.00.
As to `CC(Cc1ccc(OCc2cc(F)cc3c2OCOC3)cc1)C(=O)O` (stereo not drawn) [Example 45, 3-(4-((6-fluoro-4H-benzo[d][1,3]dioxin-8-yl)methoxy)phenyl)-2-methylpropanoic acid], the negative logarithm of the EC50 (pEC50) is less than 5.00.
Still for that read-out and setting: the result for `CC(Cc1ccc(OCc2cc(Cl)cc3c2OC(C)(C)C3O)c(F)c1)C(=O)O` (stereo not drawn) [Example 80, 3-(4-((5-chloro-3-hydroxy-2,2-dimethyl-2,3-dihydrobenzofuran-7-yl)methoxy)-3-fluorophenyl)-2-methylpropanoic acid] reads 5.00 to 6.00.
Regarding `CC(CC(=O)O)Cc1ccc(OCc2cc(Cl)cc3c2OC(C)(C)C3)cc1` (stereo not drawn) [Example 183, 4-(4-((5-chloro-2,2-dimethyl-2,3-dihydrobenzofuran-7-yl)methoxy)phenyl)-3-methylbutanoic acid], the pEC50 was 5.00 to 6.00.

For the origin of these results see patent publication EP2582674B1 (Cymabay Therapeutics, Inc., priority 2010, dated 2011).
